Source: patent US9809625B2, “Immunomodulators” (BRISTOL-MYERS SQUIBB COMPANY, priority 2015, dated 2017)
Bridge positions count the residues as written; N and C are the ends. Square brackets hold non-standard residues; d marks the D form. Peptide text beside a SMILES is read from it. * marks the point of attachment. ξ: configuration not given here. Piperazinyl(4-Ph) = c1ccc(N2CCN(*)CC2)cc1; Hyp = O=C(O)[C@@H]1C[C@@H](O)CN1; Piperazinyl(4-Me) = CN1CCN(*)CC1; ξW = NC(Cc1c[nH]c2ccccc12)C(=O)O; NMeNle = CCCC[C@H](NC)C(=O)O; X5 = Clc1ccc(C2CCN(*)CC2)cc1; X7 = CC(C)(C)OC(=O)NCCCCCN*; NMeA = CN[C@@H](C)C(=O)O; X4 = [N-]=[N+]=NCCCCCN*; Dap = NC[C@H](N)C(=O)O; X8 = c1ccc(SCCN*)cc1; X2 = c1cn(CCCN*)cn1; X6 = O=C1CN(*)CCN1; NHAllyl = C=CCN*; βAla = NCCC(=O)O; Sar = CNCC(=O)O

Molecular target: T1, PD-1-Ig binding to PD-L1-TVMV-His (PD-L1-His) (Homo sapiens, UniProt Q9NZQ7)
T1 construct: hPDL1(19-239)-TVMV-His; TVMV protease cleavage site (C); made in house; host or cells: HEK293T
Experiment: PD-1/PD-L1 Homogenous Time-Resolved Fluorescence (HTRF) binding assay
Conditions: PD-1-Ig (20 nM)/PD-L1-His (10 nM), range classes
Description: Methods for Testing the Ability of Macrocyclic Peptides to Compete for the Binding of PD-1 to PD-L1 Using Homogenous Time-Resolved Fluorescence (HTRF) Binding Assays
The ability of the macrocyclic peptides of the present disclosure to bind to PD-L1 was investigated using a PD-1/PD-L1 Homogenous Time-Resolved Fluorescence (HTRF) binding assay.
Homogenous Time-Resolved Fluorescence (HTRF) Assays of Binding of Soluble PD-1 to Soluble PD-L1. Soluble PD-1 and soluble PD-L1 refers to proteins with carboxyl-end truncations that remove the transmembrane-spanning regions and are fused to heterologous sequences, specifically the Fc portion of the human immunoglobuling G sequence (Ig) or the hexahistidine epitope tag (His). All binding studies were performed in an HTRF assay buffer consisting of dPBS supplemented with 0.1% (w/v) bovine serum albumin and 0.05% (v/v) Tween-20. For the PD-1-Ig/PD-L1-His binding assay, inhibitors were pre-incubated with PD-L1-His (10 nM final) for 15 m in 4 μl of assay buffer, followed by addition of PD-1-Ig (20 nM final) in 1 μl of assay buffer and further incubation for 15 m. PD-L1 fusion proteins from either human, cynomologous macaques, mouse, or other species were used. HTRF detection was achieved using europium crypate-labeled anti-Ig monoclonal antibody (1 nM final) and allophycocyanin (APC) labeled anti-His monoclonal antibody (20 nM final). Antibodies were diluted in HTRF detection buffer and 5 μl was dispensed on top of binding reaction. The reaction was allowed to equilibrate for 30 minutes and signal (665 nm/620 nm ratio) was obtained using an EnVision fluorometer. Additional binding assays were established between PD-1-Ig/PD-L2-His (20 and 5 nM, respectively), CD80-His/PD-L1-Ig (100 and 10 nM, respectively) and CD80-His/CTLA4-Ig (10 and 5 nM, respectively). Binding/competition studies between biotinylated Compound No. 71 and human PD-L1-His were performed as follows. Macrocyclic peptide inhibitors were pre-incubated with PD-L1-His (10 nM final) for 60 minutes in 4 μl of assay buffer followed by addition of biotinylated Compound No. 71 (0.5 nM final) in 1 μl of assay buffer. Binding was allowed to equilibrate for 30 minutes followed by addition of europium crypated labeled Streptavidin (2.5 pM final) and APC-labeled anti-His (20 nM final) in 5 μl of HTRF buffer. The reaction was allowed to equilibrate for 30 m and signal (665 nm/620 nm ratio) was obtained using an EnVision fluorometer.
Recombinant Proteins. Carboxyl-truncated human PD-1 (amino acids 25-167) with a C-terminal human Ig epitope tag [hPD-1 (25-167)-3S-IG] and human PD-L1 (amino acids 18-239) with a C-terminal His epitope tag [hPD-L1(19-239)-tobacco vein mottling virus protease cleavage site (TVMV)-His] were expressed in HEK293T cells and purified sequentially by recombinant Protein A affinity chromatography and size exclusion chromatography. Human PD-L2-His (Sino Biologicals), CD80-His (Sino Biologicals), CTLA4-Ig (RnD Systems) were all obtained through commercial sources.

T1 sequence (Q9NZQ7 with tags, fused parts or gaps): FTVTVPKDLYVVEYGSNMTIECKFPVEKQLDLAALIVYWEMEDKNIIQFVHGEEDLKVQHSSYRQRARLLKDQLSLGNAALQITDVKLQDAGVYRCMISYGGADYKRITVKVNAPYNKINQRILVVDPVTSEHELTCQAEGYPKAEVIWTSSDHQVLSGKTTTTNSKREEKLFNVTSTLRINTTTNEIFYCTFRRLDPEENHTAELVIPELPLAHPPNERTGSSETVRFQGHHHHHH

Row | SMILES | IC50 [nM]
1 | CCCC[C@H]1C(=O)N(C)[C@@H](CCCC)C(=O)N[C@@H](CC(C)C)C(=O)N[C@H](C(=O)NCC(=O)N2CCC(c3ccc(Cl)cc3)CC2)CSCC(=O)N[C@@H](Cc2ccc(O)cc2)C(=O)N(C)[C@@H](C)C(=O)N[C@@H](CC(N)=O)C(=O)N2CCC[C@H]2C(=O)N[C@@H](CN)C(=O)N[C@@H](CC(C)C)C(=O)N2C[C@H](O)C[C@H]2C(=O)N[C@@H](Cc2c[nH]c3ccccc23)C(=O)NCC(=O)NC(Cc2c[nH]c3ccccc23)C(=O)N1C (some centres unmarked) [Example 13115] ({CH2CO}-Y[NMeA]NP[Dap]L[Hyp]WG[ξW][NMeNle][NMeNle]LCG-X5; thioether N-14) | 10 to 60
2 | CCCC[C@H]1C(=O)N(C)[C@@H](CCCC)C(=O)N[C@@H](CC(C)C)C(=O)N[C@H](C(=O)NCC(=O)N2CCNC(=O)C2)CSCC(=O)N[C@@H](Cc2ccc(O)cc2)C(=O)N(C)[C@@H](C)C(=O)N[C@@H](CC(N)=O)C(=O)N2CCC[C@H]2C(=O)N[C@@H](CN)C(=O)N[C@@H](CC(C)C)C(=O)N2C[C@H](O)C[C@H]2C(=O)N[C@@H](Cc2c[nH]c3ccccc23)C(=O)NCC(=O)NC(Cc2c[nH]c3ccccc23)C(=O)N1C (some centres unmarked) [Example 13114] ({CH2CO}-Y[NMeA]NP[Dap]L[Hyp]WG[ξW][NMeNle][NMeNle]LCG-X6; thioether N-14) | 4 to 9.9
3 | CCCC[C@H]1C(=O)N(C)[C@@H](CCCC)C(=O)N[C@@H](CC(C)C)C(=O)N[C@H](C(=O)NCC(=O)N2CCN(c3ccccc3)CC2)CSCC(=O)N[C@@H](Cc2ccc(O)cc2)C(=O)N(C)[C@@H](C)C(=O)N[C@@H](CC(N)=O)C(=O)N2CCC[C@H]2C(=O)N[C@@H](CN)C(=O)N[C@@H](CC(C)C)C(=O)N2C[C@H](O)C[C@H]2C(=O)N[C@@H](Cc2c[nH]c3ccccc23)C(=O)NCC(=O)NC(Cc2c[nH]c3ccccc23)C(=O)N1C (some centres unmarked) [Example 13117] ({CH2CO}-Y[NMeA]NP[Dap]L[Hyp]WG[ξW][NMeNle][NMeNle]LCG-{Piperazinyl(4-Ph)}; thioether N-14) | 4 to 9.9
4 | CCCC[C@H]1C(=O)N(C)[C@@H](CCCC)C(=O)N[C@@H](CC(C)C)C(=O)N[C@H](C(=O)NCC(=O)NCCCn2ccnc2)CSCC(=O)N[C@@H](Cc2ccc(O)cc2)C(=O)N(C)[C@@H](C)C(=O)N[C@@H](CC(N)=O)C(=O)N2CCC[C@H]2C(=O)N[C@@H](CN)C(=O)N[C@@H](CC(C)C)C(=O)N2C[C@H](O)C[C@H]2C(=O)N[C@@H](Cc2c[nH]c3ccccc23)C(=O)NCC(=O)NC(Cc2c[nH]c3ccccc23)C(=O)N1C (some centres unmarked) [Example 13099] ({CH2CO}-Y[NMeA]NP[Dap]L[Hyp]WG[ξW][NMeNle][NMeNle]LCG-X2; thioether N-14) | 10 to 60
5 | CCCC[C@H]1C(=O)N(C)[C@@H](CCCC)C(=O)N[C@@H](CC(C)C)C(=O)N[C@H](C(=O)NCC(=O)NCCCCCNC(=O)OC(C)(C)C)CSCC(=O)N[C@@H](Cc2ccc(O)cc2)C(=O)N(C)[C@@H](C)C(=O)N[C@@H](CC(N)=O)C(=O)N2CCC[C@H]2C(=O)N[C@@H](CN)C(=O)N[C@@H](CC(C)C)C(=O)N2C[C@H](O)C[C@H]2C(=O)N[C@@H](Cc2c[nH]c3ccccc23)C(=O)NCC(=O)NC(Cc2c[nH]c3ccccc23)C(=O)N1C (some centres unmarked) [Example 13112] ({CH2CO}-Y[NMeA]NP[Dap]L[Hyp]WG[ξW][NMeNle][NMeNle]LCG-X7; thioether N-14) | 10 to 60
6 | C=CCNC(=O)CNC(=O)[C@@H]1CSCC(=O)N[C@@H](Cc2ccc(O)cc2)C(=O)N(C)[C@@H](C)C(=O)N[C@@H](CC(N)=O)C(=O)N2CCC[C@H]2C(=O)N[C@@H](CN)C(=O)N[C@@H](CC(C)C)C(=O)N2C[C@H](O)C[C@H]2C(=O)N[C@@H](Cc2c[nH]c3ccccc23)C(=O)NCC(=O)NC(Cc2c[nH]c3ccccc23)C(=O)N(C)[C@@H](CCCC)C(=O)N(C)[C@@H](CCCC)C(=O)N[C@@H](CC(C)C)C(=O)N1 (some centres unmarked) [Example 13097] ({CH2CO}-Y[NMeA]NP[Dap]L[Hyp]WG[ξW][NMeNle][NMeNle]LCG-NHAllyl; thioether N-14) | 10 to 60
7 | CCCC[C@H]1C(=O)N(C)[C@@H](CCCC)C(=O)N[C@@H](CC(C)C)C(=O)N[C@H](C(=O)NCC(=O)NCCC(N)=O)CSCC(=O)N[C@@H](Cc2ccc(O)cc2)C(=O)N(C)[C@@H](C)C(=O)N[C@@H](CC(N)=O)C(=O)N2CCC[C@H]2C(=O)N[C@@H](CN)C(=O)N[C@@H](CC(C)C)C(=O)N2C[C@H](O)C[C@H]2C(=O)N[C@@H](Cc2c[nH]c3ccccc23)C(=O)NCC(=O)NC(Cc2c[nH]c3ccccc23)C(=O)N1C (some centres unmarked) [Example 13110] ({CH2CO}-Y[NMeA]NP[Dap]L[Hyp]WG[ξW][NMeNle][NMeNle]LCG[βAla]-NH2; thioether N-14) | 4 to 9.9
8 | CCCC[C@H]1C(=O)N(C)[C@@H](CCCC)C(=O)N[C@@H](CC(C)C)C(=O)N[C@H](C(=O)NCC(=O)NCCSc2ccccc2)CSCC(=O)N[C@@H](Cc2ccc(O)cc2)C(=O)N(C)[C@@H](C)C(=O)N[C@@H](CC(N)=O)C(=O)N2CCC[C@H]2C(=O)N[C@@H](CN)C(=O)N[C@@H](CC(C)C)C(=O)N2C[C@H](O)C[C@H]2C(=O)N[C@@H](Cc2c[nH]c3ccccc23)C(=O)NCC(=O)NC(Cc2c[nH]c3ccccc23)C(=O)N1C (some centres unmarked) [Example 13101] ({CH2CO}-Y[NMeA]NP[Dap]L[Hyp]WG[ξW][NMeNle][NMeNle]LCG-X8; thioether N-14) | 10 to 60
9 | CCCC[C@H]1C(=O)N(C)[C@@H](CCCC)C(=O)N[C@@H](CC(C)C)C(=O)N[C@H](C(=O)NCC(=O)N2CCN(C)CC2)CSCC(=O)N[C@@H](Cc2ccc(O)cc2)C(=O)N(C)[C@@H](C)C(=O)N[C@@H](CC(N)=O)C(=O)N2CCC[C@H]2C(=O)N[C@@H](CN)C(=O)N[C@@H](CC(C)C)C(=O)N2C[C@H](O)C[C@H]2C(=O)N[C@@H](Cc2c[nH]c3ccccc23)C(=O)NCC(=O)N[C@@H](Cc2c[nH]c3ccccc23)C(=O)N1C [Example 13089] ({CH2CO}-Y[NMeA]NP[Dap]L[Hyp]WGW[NMeNle][NMeNle]LCG-{Piperazinyl(4-Me)}; thioether N-14) | 10 to 60
10 | CCCC[C@H]1C(=O)N(C)[C@@H](CCCC)C(=O)N[C@@H](CC(C)C)C(=O)N[C@H](C(=O)N(C)CC(N)=O)CSCC(=O)N[C@@H](Cc2ccc(O)cc2)C(=O)N(C)[C@@H](C)C(=O)N[C@@H](CC(N)=O)C(=O)N2CCC[C@H]2C(=O)N[C@@H](CN)C(=O)N[C@@H](CC(C)C)C(=O)N2C[C@H](O)C[C@H]2C(=O)N[C@@H](Cc2c[nH]c3ccccc23)C(=O)NCC(=O)N[C@@H](Cc2c[nH]c3ccccc23)C(=O)N1C [Example 13119] ({CH2CO}-Y[NMeA]NP[Dap]L[Hyp]WGW[NMeNle][NMeNle]LC[Sar]-NH2; thioether N-14) | 10 to 60
11 | CCCC[C@H]1C(=O)N(C)[C@@H](CCCC)C(=O)N[C@@H](CC(C)C)C(=O)N[C@H](C(=O)NCC(=O)NCCCCCN=[N+]=[N-])CSCC(=O)N[C@@H](Cc2ccc(O)cc2)C(=O)N(C)[C@@H](C)C(=O)N[C@@H](CC(N)=O)C(=O)N2CCC[C@H]2C(=O)N[C@@H](CO)C(=O)N[C@@H](CCC(N)=O)C(=O)N2C[C@H](O)C[C@H]2C(=O)N[C@@H](Cc2c[nH]c3ccccc23)C(=O)N[C@@H](CO)C(=O)N[C@@H](Cc2c[nH]c3ccccc23)C(=O)N1C [Example 13081] ({CH2CO}-Y[NMeA]NPSQ[Hyp]WSW[NMeNle][NMeNle]LCG-X4; thioether N-14) | 10 to 60
